Columns and labels:
[1] = test system: Miapaca2/18.2; assay: Efficacy against subcutaneous xenograft tumors of human pancreatic cancer Miapaca2/18.2 in mice; type: in vivo
Description: (§1) NOD-Scid mice (7 weeks old, female) were purchased from Shanghai Lingchang Biotechnology Co., Ltd. Each mouse was subcutaneously inoculated with 1 × 10^7 Miapaca2/18.2 cells. When tumor volume reached 60 mm^3 to 150 mm^3, the mice were grouped according to tumor volume and then the medicaments were administered intraperitoneally (IP) at an injection volume of 0.1 mL per 10 g of body weight.

[2] = test system: KATO III/18.2; assay: Efficacy against subcutaneous xenograft tumors of human gastric cancer KATO III/18.2 in mice; type: in vivo, NOD-Scid mice
Description: as §1, with “× 10^7 KATO III/18.2 cells. When” for “× 10^7 Miapaca2/18.2 cells. When”, “to tumor volume, and then” for “to tumor volume and then”

Q: Which tumor growth inhibition ([1]; Day 14 (first dose Day 0), M5 monoclonal antibody or Human IgG1 10 mg/kg IP BIW 4 times, gemcitabine 75 mg/kg IP Q4D 2 times) does the source give for Nc1ccn([C@@H]2O[C@H](CO)[C@@H](O)C2(F)F)c(=O)n1 [gemcitabine] here?
A: 53%

Q: What about the maximum weight loss ([1]; mice, on Day 7) of the same compound?
A: 9.2%

Q: What about the mice died ([1]; ten mice per group) of the same compound?
A: one out of ten

Q: Which tumor growth inhibition ([2]; Day 23 (first dose Day 0), M5 monoclonal antibody or Human IgG1 10 mg/kg IP BIW 6 times, oxaliplatin 8 mg/kg IP Q4D 3 times) does the source give for O=C1[O][Pt]2([NH][C@@H]3CCCC[C@H]3[NH]2)[O]C1=O [oxaliplatin] here?
A: 31%

Q: What about the maximum weight losses ([2]; mice, on Day 10) of the same compound?
A: 5.5%

Reference: patent EP4796126A1, “COMBINATION OF CLDN18_2 ANTIBODY AND CHEMOTHERAPEUTIC DRUG AND USE THEREOF” (Jiangsu Aosaikang Biopharmaceutical Co., Ltd., priority 2023, dated 2025)
